What all share (format): functional
The test system of experiment [1] is Acinetobacter baumannii. Put plainly: Antibacterial activity against Acinetobacter baumannii ATCC 19606 assessed as growth inhibition after 18 hrs by monochromator plate assay.
Experiment [2] concerns Pseudomonas aeruginosa. Put plainly: Antibacterial activity against Pseudomonas aeruginosa ATCC 27853 assessed as growth inhibition after 18 hrs by monochromator plate assay.
For experiment [3], the system named is Klebsiella pneumoniae. The experiment can be described thus: Antibacterial activity against Klebsiella pneumoniae ATCC 700603 assessed as growth inhibition after 18 hrs by monochromator plate assay.
In experiment [4] the test system is Escherichia coli. The experiment can be described thus: Antibacterial activity against Escherichia coli ATCC 25922 assessed as growth inhibition after 18 hrs by monochromator plate assay.
The test system of experiment [5] is Staphylococcus aureus. The experiment can be described thus: Antibacterial activity against methicillin-resistant Staphylococcus aureus ATCC 43300 assessed as growth inhibition after 18 hrs by monochromator plate assay.
Experiment [6] relates to Cryptococcus neoformans. The experiment can be described thus: Antifungal activity against Cryptococcus neoformans var. grubii ATCC 208821 assessed as growth inhibition at 32 ug/ml after 36 hrs by monochromator plate assay relative to control. The conditions noted are these: dose 32.0 µg/ml.
Experiment [7] deals with Candida albicans. Put plainly: Antifungal activity against Candida albicans ATCC 90028 assessed as growth inhibition at 32 ug/ml after 36 hrs by monochromator plate assay relative to control. The conditions noted are these: for inhibition: dose 32.0 µg/ml.
For experiment [8], the system named is Acinetobacter baumannii. Put plainly: Antibacterial activity against Acinetobacter baumannii ATCC 19606 assessed as growth inhibition at 32 ug/ml after 18 hrs by monochromator plate assay relative to control. The following applies: for inhibition: dose 32.0 µg/ml.
For experiment [9], the system named is Pseudomonas aeruginosa. Put plainly: Antibacterial activity against Pseudomonas aeruginosa ATCC 27853 assessed as growth inhibition at 32 ug/ml after 18 hrs by monochromator plate assay relative to control. The conditions noted are these: for inhibition: dose 32.0 µg/ml.
The test system of experiment [10] is Klebsiella pneumoniae. The experiment can be described thus: Antibacterial activity against Klebsiella pneumoniae ATCC 700603 assessed as growth inhibition at 32 ug/ml after 18 hrs by microplate reader assay relative to control. The conditions noted are these: for inhibition: dose 32.0 µg/ml.
Experiment [11] deals with Escherichia coli. Put plainly: Antibacterial activity against Escherichia coli ATCC 25922 assessed as growth inhibition at 32 ug/ml after 18 hrs by monochromator plate assay relative to control. The conditions noted are these: for inhibition: dose 32.0 µg/ml.
Experiment [12] concerns Staphylococcus aureus. The experiment can be described thus: Antibacterial activity against methicillin-resistant Staphylococcus aureus ATCC 43300 assessed as growth inhibition at 32 ug/ml after 18 hrs by monochromator plate assay relative to control.
Experiment [13] concerns Candida albicans. The experiment can be described thus: Antifungal activity against Candida albicans ATCC 90028 assessed as growth inhibition after 36 hrs by monochromator plate assay.
Experiment [14] deals with Cryptococcus neoformans. The experiment can be described thus: Antifungal activity against Cryptococcus neoformans var. grubii ATCC 208821) assessed as growth inhibition after 36 hrs by monochromator plate assay relative to control.

≈ marks a conversion by molar mass, not a printed value. Calls of active or inactive are those of the source. The rule behind the calls is not given here.

A word on the MIC: it is the least concentration at which growth counts as inhibited. For orientation: inhibition means the change of the read-out against control, counted positive when it falls. Turning to `Cc1nc(-c2ccc(I)cc2)sc1-c1cc(C(=O)O)n[nH]1`, the MIC in the experiment with Acinetobacter baumannii [1], with Klebsiella pneumoniae [3], in the experiment on Escherichia coli [4], in the experiment with Staphylococcus aureus [5] and in the experiment on Candida albicans [13] was > 32 µg/mL in each case. For the same molecule, the MIC entry in the experiment on Pseudomonas aeruginosa [2] and with Cryptococcus neoformans [14] was “inactive” throughout. The inhibition entry in the experiment on Cryptococcus neoformans [6] and in the experiment with Pseudomonas aeruginosa [9] was “inactive” each time. The inhibition at 32 µg/mL came out at 25.5% in the experiment with Candida albicans [7]; 6.6% with Acinetobacter baumannii [8]; 12% with Klebsiella pneumoniae [10]; 27.5% in the experiment on Escherichia coli [11]; 31.8% in the experiment with Staphylococcus aureus [12].

For `Cc1nc(-c2ccc(-c3ccccc3)cc2)sc1-c1cc(C(=O)NNc2ccccc2)n[nH]1`, the MIC with Acinetobacter baumannii [1], in the experiment on Staphylococcus aureus [5] and in the experiment with Candida albicans [13] was > 32 µg/mL each time. The MIC entry in the experiment with Pseudomonas aeruginosa [2], with Klebsiella pneumoniae [3], in the experiment on Escherichia coli [4] and with Cryptococcus neoformans [14] was “inactive” throughout. The inhibition result with Cryptococcus neoformans [6], in the experiment with Pseudomonas aeruginosa [9], in the experiment on Klebsiella pneumoniae [10] and with Escherichia coli [11] was “inactive” each time. The inhibition at 32 µg/mL in the experiment with Candida albicans [7] stood at 17.8%; in the experiment with Acinetobacter baumannii [8], 5.5%; with Staphylococcus aureus [12], 8.2%.

For `Cc1nc(-c2ccc(-c3ccccc3)cc2)sc1-c1cc(C(=O)Nc2ccc(F)cc2)n[nH]1`, the MIC in the experiment with Acinetobacter baumannii [1], with Pseudomonas aeruginosa [2], in the experiment on Klebsiella pneumoniae [3], with Staphylococcus aureus [5] and with Candida albicans [13] was > 32 µg/mL throughout. Besides, the MIC result in the experiment with Escherichia coli [4] and with Cryptococcus neoformans [14] was “inactive” in each case. Also, the inhibition entry with Cryptococcus neoformans [6] and in the experiment on Escherichia coli [11] was “inactive” throughout. Further, the inhibition at 32 µg/mL turned out to be 19.6% in the experiment with Candida albicans [7]; 3% in the experiment with Acinetobacter baumannii [8]; 5.1% with Pseudomonas aeruginosa [9]; 4.4% with Klebsiella pneumoniae [10]; 15.1% in the experiment with Staphylococcus aureus [12].

In the case of `COC(=O)c1cc(-c2sc(-c3ccc(I)cc3)nc2C)[nH]n1`, the MIC in the experiment with Acinetobacter baumannii [1], in the experiment with Pseudomonas aeruginosa [2], in the experiment with Staphylococcus aureus [5] and in the experiment with Candida albicans [13] was > 32 µg/mL each time. Further, the MIC result in the experiment with Klebsiella pneumoniae [3], in the experiment on Escherichia coli [4] and in the experiment with Cryptococcus neoformans [14] was “inactive” in each case. The inhibition result with Cryptococcus neoformans [6], in the experiment on Klebsiella pneumoniae [10] and in the experiment with Escherichia coli [11] was “inactive” in each case. Moreover, the inhibition at 32 µg/mL in the experiment with Candida albicans [7] was 5.1%; with Acinetobacter baumannii [8], 4.9%; with Pseudomonas aeruginosa [9] it was 6.6%; with Staphylococcus aureus [12] it was 14.2%.

On to `Cc1nc(-c2ccc(-c3ccccc3)cc2)sc1-c1cc(C(=O)NC2CCCCC2)n[nH]1`, for which the MIC in the experiment on Acinetobacter baumannii [1], with Pseudomonas aeruginosa [2], in the experiment with Klebsiella pneumoniae [3] and in the experiment with Staphylococcus aureus [5] was > 32 µg/mL throughout. For the same molecule, the MIC result with Escherichia coli [4], in the experiment on Candida albicans [13] and in the experiment on Cryptococcus neoformans [14] was “inactive” throughout. The inhibition result with Cryptococcus neoformans [6], with Candida albicans [7] and in the experiment with Escherichia coli [11] was “inactive” throughout. In addition, the inhibition at 32 µg/mL was found to be 2.9% in the experiment on Acinetobacter baumannii [8], 6.6% with Pseudomonas aeruginosa [9], 6.9% with Klebsiella pneumoniae [10] and 84.9% with Staphylococcus aureus [12].

Turning to `OC(Cn1cncn1)(Cn1cncn1)c1ccc(F)cc1F` [FLUCONAZOLE], the inhibition result in the experiment on Cryptococcus neoformans [6] and in the experiment with Candida albicans [7] was “inactive” in each case. Besides, the MIC in the experiment with Candida albicans [13] worked out at 0.125 µg/mL (≈ 0.408 µM); with Cryptococcus neoformans [14], 8 µg/mL (≈ 26.1 µM).

As to `Cc1ccc(NC(=O)c2cc(-c3sc(-c4ccc(-c5ccccc5)cc4)nc3C)[nH]n2)cc1C`, the MIC result with Acinetobacter baumannii [1], in the experiment with Escherichia coli [4] and in the experiment with Cryptococcus neoformans [14] was “inactive” in each case. The MIC in the experiment on Pseudomonas aeruginosa [2], in the experiment on Klebsiella pneumoniae [3], in the experiment with Staphylococcus aureus [5] and in the experiment on Candida albicans [13] was > 32 µg/mL each time. Further, the inhibition result with Cryptococcus neoformans [6], in the experiment with Acinetobacter baumannii [8] and in the experiment with Escherichia coli [11] was “inactive” in each case. The inhibition at 32 µg/mL was 10.1% with Candida albicans [7], 2.2% in the experiment with Pseudomonas aeruginosa [9], 3.5% in the experiment on Klebsiella pneumoniae [10] and 10.8% in the experiment on Staphylococcus aureus [12].

Take `CCOC(=O)c1cc(-c2sc(-c3ccc(I)cc3)nc2C)[nH]n1`: the MIC with Acinetobacter baumannii [1], in the experiment on Pseudomonas aeruginosa [2], with Klebsiella pneumoniae [3], in the experiment with Staphylococcus aureus [5] and in the experiment on Candida albicans [13] was > 32 µg/mL in each case. Further, the MIC result with Escherichia coli [4] and with Cryptococcus neoformans [14] was “inactive” throughout. The inhibition entry in the experiment with Cryptococcus neoformans [6] and in the experiment on Escherichia coli [11] was “inactive” each time. For the same molecule, the inhibition at 32 µg/mL was found to be 7.8% with Candida albicans [7]; 6.6% in the experiment on Acinetobacter baumannii [8]; 16.6% in the experiment on Pseudomonas aeruginosa [9]; 15.1% in the experiment on Klebsiella pneumoniae [10]; 16.4% with Staphylococcus aureus [12].

In the case of `Cc1nc(-c2ccc(-c3ccccc3)cc2)sc1-c1cc(C(=O)Nc2ccc3c(c2)OCO3)n[nH]1`, the MIC entry with Acinetobacter baumannii [1], with Escherichia coli [4] and in the experiment on Cryptococcus neoformans [14] was “inactive” each time. Also, the MIC with Pseudomonas aeruginosa [2], with Klebsiella pneumoniae [3], with Staphylococcus aureus [5] and in the experiment on Candida albicans [13] was > 32 µg/mL in each case. For the same molecule, the inhibition result with Cryptococcus neoformans [6], with Acinetobacter baumannii [8] and in the experiment with Escherichia coli [11] was “inactive” throughout. Further, the inhibition at 32 µg/mL with Candida albicans [7] amounted to 5%; with Pseudomonas aeruginosa [9], 1.3%; in the experiment with Klebsiella pneumoniae [10] it was 7.5%; in the experiment on Staphylococcus aureus [12] it was 3.2%.

`Cc1nc(-c2ccc(I)cc2)sc1-c1cc(C(=O)Nc2ccccc2)n[nH]1`: the MIC entry in the experiment on Acinetobacter baumannii [1], in the experiment with Escherichia coli [4] and in the experiment with Cryptococcus neoformans [14] was “inactive” in each case. The minimum inhibitory concentration (MIC) with Pseudomonas aeruginosa [2], in the experiment on Klebsiella pneumoniae [3], in the experiment on Staphylococcus aureus [5] and with Candida albicans [13] was > 32 µg/mL in each case. In addition, the inhibition entry in the experiment on Cryptococcus neoformans [6], in the experiment with Acinetobacter baumannii [8] and in the experiment on Escherichia coli [11] was “inactive” throughout. Further, the inhibition at 32 µg/mL with Candida albicans [7] came to 4.6%; in the experiment with Pseudomonas aeruginosa [9], 11.1%; with Klebsiella pneumoniae [10] it was 4.7%; with Staphylococcus aureus [12], 19%.

With `CCCCc1ccc(NC(=O)c2cc(-c3sc(-c4ccc(-c5ccccc5)cc4)nc3C)[nH]n2)cc1`, the minimum inhibitory concentration (MIC) in the experiment on Acinetobacter baumannii [1], in the experiment on Pseudomonas aeruginosa [2], in the experiment on Klebsiella pneumoniae [3], with Staphylococcus aureus [5] and with Candida albicans [13] was > 32 µg/mL each time. Further, the MIC entry in the experiment with Escherichia coli [4] and with Cryptococcus neoformans [14] was “inactive” in each case. Also, the inhibition entry in the experiment on Cryptococcus neoformans [6] and in the experiment on Escherichia coli [11] was “inactive” each time. Moreover, the inhibition at 32 µg/mL in the experiment on Candida albicans [7] was determined as 13.5%; in the experiment with Acinetobacter baumannii [8], 4.1%; in the experiment with Pseudomonas aeruginosa [9], 5.6%; with Klebsiella pneumoniae [10], 3.3%; with Staphylococcus aureus [12], 9.5%.

Turning to `Cc1nc(-c2ccc(-c3ccccc3)cc2)sc1-c1cc(C(=O)Nc2ccc(C(F)(F)F)cc2)n[nH]1`, the MIC entry in the experiment with Acinetobacter baumannii [1], with Escherichia coli [4] and with Cryptococcus neoformans [14] was “inactive” throughout. The MIC with Pseudomonas aeruginosa [2], with Klebsiella pneumoniae [3], in the experiment with Staphylococcus aureus [5] and with Candida albicans [13] was > 32 µg/mL each time. For the same molecule, the inhibition entry in the experiment with Cryptococcus neoformans [6], with Acinetobacter baumannii [8] and with Escherichia coli [11] was “inactive” in each case. Besides, the inhibition at 32 µg/mL in the experiment on Candida albicans [7] is 4.3%; with Pseudomonas aeruginosa [9], 2.8%; with Klebsiella pneumoniae [10], 0.8%; in the experiment with Staphylococcus aureus [12], 9.9%.

As for `Cc1nc(-c2ccc(I)cc2)sc1-c1cc(C(=O)NN2CCOCC2)n[nH]1`, the MIC in the experiment with Acinetobacter baumannii [1], with Pseudomonas aeruginosa [2], in the experiment on Klebsiella pneumoniae [3], in the experiment on Staphylococcus aureus [5] and in the experiment on Candida albicans [13] was > 32 µg/mL throughout. Also, the MIC result in the experiment on Escherichia coli [4] and in the experiment on Cryptococcus neoformans [14] was “inactive” in each case. Further, the inhibition result in the experiment on Cryptococcus neoformans [6] and in the experiment on Escherichia coli [11] was “inactive” throughout. Moreover, the inhibition at 32 µg/mL in the experiment on Candida albicans [7] came out at 3.5%; in the experiment with Acinetobacter baumannii [8] it was 2.8%; in the experiment with Pseudomonas aeruginosa [9], 10.1%; with Klebsiella pneumoniae [10], 8.4%; in the experiment on Staphylococcus aureus [12] it was 15.7%.

In the case of `CN[C@H](CC(C)C)C(=O)N[C@H]1C(=O)N[C@@H](CC(N)=O)C(=O)N[C@H]2C(=O)N[C@H]3C(=O)N[C@H](C(=O)N[C@H](C(=O)O)c4cc(O)cc(O)c4-c4cc3ccc4O)[C@H](O)c3ccc(c(Cl)c3)Oc3cc2cc(c3O[C@@H]2O[C@H](CO)[C@@H](O)[C@H](O)[C@H]2O[C@H]2C[C@](C)(N)[C@H](O)[C@H](C)O2)Oc2ccc(cc2Cl)[C@H]1O`, the inhibition entry with Staphylococcus aureus [12] (dose 32.0 µg/ml) is “inactive”.

(Values after ChEMBL document CHEMBL4732221, “Design, synthesis and bioactivity evaluation of novel pyrazole linked phenylthiazole derivatives in context of antibacterial activity” (Bioorg Med Chem Lett, 2021).)
